Measured values as given in patent publication US12060347B2 (BRISTOL-MYERS SQUIBB COMPANY, priority 2016, dated 2024).

Molecular target: T1, human PAR4 (Homo sapiens, UniProt Q96RI0)
T1 construct: expressed in transfected cells; host or cells: HEK293 PAR4 Clone 1.2A (BMS Arctic ID 383940)
T1 sequence (Q96RI0 18-385): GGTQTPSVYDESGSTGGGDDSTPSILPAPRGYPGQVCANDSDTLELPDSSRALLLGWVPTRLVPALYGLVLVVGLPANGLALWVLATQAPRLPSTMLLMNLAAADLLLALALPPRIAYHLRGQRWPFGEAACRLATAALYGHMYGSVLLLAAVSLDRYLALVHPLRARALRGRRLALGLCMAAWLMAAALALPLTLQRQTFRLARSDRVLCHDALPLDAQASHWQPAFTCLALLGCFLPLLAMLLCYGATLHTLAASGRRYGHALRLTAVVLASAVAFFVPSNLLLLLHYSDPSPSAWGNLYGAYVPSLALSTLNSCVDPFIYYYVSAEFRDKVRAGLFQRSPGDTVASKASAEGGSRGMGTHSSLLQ
Experiment: PAR4 FLIPR assay: antagonism of agonist-peptide-induced calcium mobilization in PAR4-expressing HEK293 cells
Assay type: cell-based
Conditions: H-Ala-Phe(4-F)-[…]NH2-induced intracellular calcium mobilization, 11-point curves

| Compound | IC50 [nM] |
| --- | --- |
| COc1cnc2c(-c3nc4c(s3)C(O)CCC4)cc(C)cc2n1 (stereo not shown) [Example 138, 2-(2-methoxy-7-methylquinoxalin-5-yl)-4,5,6,7-tetrahydrobenzo[d]thiazol-7-ol] | 33 |
| COc1cnc2c(-c3nc4c(s3)C(OC)CCC4)cc(C)cc2n1 (stereo not shown) [Example 139, 7-methoxy-2-(2-methoxy-7-methylquinoxalin-5-yl)-4,5,6,7-tetrahydrobenzo[d]thiazole] | 3.9 |
| COc1cnc2c(-c3nc4c(s3)CC(OC)CC4)cc(C)cc2n1 (stereo not shown) [Example 140, 6-methoxy-2-(2-methoxy-7-methylquinoxalin-5-yl)-4,5,6,7-tetrahydrobenzo[d]thiazole] | 21 |
| COc1cnc2c(-c3nc4c(s3)CC(C)(C)CC4)cc(C)cc2n1 [Example 141, 2-(2-methoxy-7-methylquinoxalin-5-yl)-6,6-dimethyl-4,5,6,7-tetrahydrobenzo[d]thiazole] | 80 |
| COc1cnc2c(-c3nc4c(s3)CC(CCO)C4)cc(C)cc2n1 (stereo not shown) [Example 142, 2-(2-(2-methoxy-7-methylquinoxalin-5-yl)-5,6-dihydro-4H-cyclopenta[d]thiazol-5-yl) ethanol] | 5.6 |
| COCc1cnc2c(-c3nc4c(s3)C(O)CCC4)cc(C)cc2n1 (stereo not shown) [Example 143, 2-(2-(methoxymethyl)-7-methylquinoxalin-5-yl)-4,5,6,7-tetrahydrobenzo[d]thiazol-7-ol] | 36 |
| COCc1cnc2c(-c3nc4c(s3)CCCC4)cc(C)cc2n1 [Example 144, 2-(2-(methoxymethyl)-7-methylquinoxalin-5-yl)-4,5,6,7-tetrahydrobenzo[d]thiazole] | 0.3 |
| COCc1cnc2c(-c3nc4c(s3)C(O)C(C)(C)CC4)cc(C)cc2n1 (stereo not shown) [Example 145, 2-(2-(methoxymethyl)-7-methylquinoxalin-5-yl)-6,6-dimethyl-4,5,6,7-tetrahydrobenzo[d] thiazol-7-ol] | 4.5 |
| COCc1cnc2c(-c3nc4cnccc4s3)cc(C)cc2n1 [Example 146, 2-(2-(methoxymethyl)-7-methylquinoxalin-5-yl)thiazolo[4,5-c]pyridine] | 7 |
| COCc1cnc2c(-c3nc4ccc(OC)nc4s3)cc(C)cc2n1 [Example 147] | 1.7 |
| COCc1cnc2c(-c3nc4cccnc4s3)cc(C)cc2n1 [Example 148, 2-(2-(methoxymethyl)-7-methylquinoxalin-5-yl)thiazolo[5,4-b]pyridine] | 48 |
| COCc1cnc2c(-c3nc4c(Cl)cncc4s3)cc(C)cc2n1 [Example 149, 7-chloro-2-(2-(methoxymethyl)-7-methylquinoxalin-5-yl)thiazolo[5,4-c]pyridine] | 4.2 |
| COc1cnc2c(-c3nc4ccc(OC)nc4s3)cc(C)cc2n1 [Example 150, 5-methoxy-2-(2-methoxy-7-methylquinoxalin-5-yl)thiazolo[5,4-b]pyridine] | 94 |
| COc1cnc2c(-c3nc4c(Cl)cncc4s3)cc(C)cc2n1 [Example 151, 7-chloro-2-(2-methoxy-7-methylquinoxalin-5-yl)thiazolo[5,4-c]pyridine] | 2000 |
| COC(=O)c1cc(OC)cc2sc(-c3cc(C)cc4nc(OC)cnc34)nc12 [Example 152, methyl 6-methoxy-2-(2-methoxy-7-methylquinoxalin-5-yl)benzo[d]thiazole-4-carboxylate] | 38 |
| COCc1cnc2c(-c3nc4c(C)cc(OC)cc4s3)nc(C)cc2c1 [Example 153, 6-methoxy-2-(3-(methoxymethyl)-6-methyl-1,7-naphthyridin-8-yl)-4-methylbenzo[d]thiazole] | 16 |
| COc1cc(CO)c2nc(-c3cc(C)cc4nc(OC)cnc34)sc2c1 [Example 154, (6-methoxy-2-(2-methoxy-7-methylquinoxalin-5-yl)benzo[d]thiazol-4-yl)methanol] | 3.8 |
| COCc1cnc2c(-c3nc4c(CO)cc(OC)cc4s3)cc(C)cc2n1 [Example 155, (6-methoxy-2-(2-(methoxymethyl)-7-methylquinoxalin-5-yl)benzo[d]thiazol-4-yl) methanol] | 0.8 |
| COCc1cnc2c(-c3nc4c(C(C)O)cc(OC)cc4s3)cc(C)cc2n1 (stereo not shown) [Example 156, 1-(6-methoxy-2-(2-(methoxymethyl)-7-methylquinoxalin-5-yl)benzo[d]thiazol-4-yl) ethanol] | 1.4 |
| COCc1cnc2c(-c3nc4c(C(C)(C)O)cc(OC)cc4s3)cc(C)cc2n1 [Example 157, 2-(6-methoxy-2-(2-(methoxymethyl)-7-methylquinoxalin-5-yl)benzo[d]thiazol-4-yl) propan-2-ol] | 31 |

| Compound | IC50 [nM] |
| --- | --- |
| COCc1cnc2c(-c3nc4c(C(O)C5CC5)cc(OC)cc4s3)cc(C)cc2n1 (stereo not shown) [Example 158, Cyclopropyl(6-methoxy-2-(2-(methoxymethyl)-7-methylquinoxalin-5-yl)benzo[d]thiazol-4-yl)methanol] | 0.7 |
| COCc1cnc2c(-c3nc4c(CN(C)C)cc(OC)cc4s3)cc(C)cc2n1 [Example 159, 1-(6-methoxy-2-(2-(methoxymethyl)-7-methylquinoxalin-5-yl)benzo[d]thiazol-4-yl)-N,N-dimethylmethanamine] | 25 |
| COc1cc(C(O)C2CC2)c2nc(-c3cc(C)cc4nc(OC)cnc34)sc2c1 (stereo not shown) [Example 160, Cyclopropyl(6-methoxy-2-(2-methoxy-7-methylquinoxalin-5-yl)benzo[d]thiazol-4-yl) methanol] | 1.2 |
| COCc1cnc2c(-c3nc4c(C(O)c5ccccc5)cc(OC)cc4s3)cc(C)cc2n1 (stereo not shown) [Example 161, (6-methoxy-2-(2-(methoxymethyl)-7-methylquinoxalin-5-yl)benzo[d]thiazol-4-yl) (phenyl)methanol] | 0.7 |
| COCc1cnc2c(-c3nc4c(C(=O)O)cc(OC)cc4s3)cc(C)cc2n1 [Example 162, 6-methoxy-2-(2-(methoxymethyl)-7-methylquinoxalin-5-yl)benzo[d]thiazole-4-carboxylic acid] | 270 |
| COCc1cnc2c(-c3nc4c(C(O)C5CCCCC5)cc(OC)cc4s3)cc(C)cc2n1 (stereo not shown) [Example 165, Cyclohexyl(6-methoxy-2-(2-(methoxymethyl)-7-methylquinoxalin-5-yl)benzo[d]thiazol-4-yl)methanol] | 1.2 |
| COCc1cnc2c(-c3nc4c(C(O)C5CCC5)cc(OC)cc4s3)cc(C)cc2n1 (stereo not shown) [Example 166, Cyclobutyl(6-methoxy-2-(2-(methoxymethyl)-7-methylquinoxalin-5-yl)benzo[d]thiazol-4-yl)methanol] | 2.8 |
| COCc1cnc2c(-c3nc4c(C(O)c5ccccn5)cc(OC)cc4s3)cc(C)cc2n1 (stereo not shown) [Example 167, (6-methoxy-2-(2-(methoxymethyl)-7-methylquinoxalin-5-yl)benzo[d]thiazol-4-yl)(pyridin-2-yl)methanol] | 4.5 |
| COCc1cnc2c(-c3nc4c(C(O)c5cccnc5)cc(OC)cc4s3)cc(C)cc2n1 (stereo not shown) [Example 168, (6-methoxy-2-(2-(methoxymethyl)-7-methylquinoxalin-5-yl)benzo[d]thiazol-4-yl) (pyridin-3-yl)methanol] | 2 |
| COCc1cnc2c(-c3nc4c(C(O)C(F)(F)F)cc(OC)cc4s3)cc(C)cc2n1 (stereo not shown) [Example 171, 2,2,2-trifluoro-1-(6-methoxy-2-(2-(methoxymethyl)-7-methylquinoxalin-5-yl)benzo[d]thiazol-4-yl)ethanol] | 0.6 |
| COCc1cnc2c(-c3nc4c(C(O)c5ccncc5)cc(OC)cc4s3)cc(C)cc2n1 (stereo not shown) [Example 172, (6-methoxy-2-(2-(methoxymethyl)-7-methylquinoxalin-5-yl)benzo[d]thiazol-4-yl)(pyridin-4-yl)methanol] | 1.7 |
| COCc1cnc2c(-c3nc4c(C(O)CC(F)(F)F)cc(OC)cc4s3)cc(C)cc2n1 (stereo not shown) [Example 173, 3,3,3-trifluoro-1-(6-methoxy-2-(2-(methoxymethyl)-7-methylquinoxalin-5-yl)benzo[d]thiazol-4-yl)propan-1-ol] | 2.7 |
| COc1cc(C(O)C(F)(F)F)c2nc(-c3cc(C)cc4nc(OC)cnc34)sc2c1 (stereo not shown) [Example 174, 2,2,2-trifluoro-1-(6-methoxy-2-(2-methoxy-7-methylquinoxalin-5-yl)benzo[d]thiazol-4-yl)ethanol] | 3 |
| COc1cnc2c(-c3cc4ccccc4o3)cc(C)cc2n1 [Example 175, 5-(benzofuran-2-yl)-2-methoxy-7-methylquinoxaline] | 23 |
| COC(=O)c1cnc2c(-c3cc4ccccc4o3)cc(C)cc2n1 [Example 176, methyl 5-(benzofuran-2-yl)-7-methylquinoxaline-2-carboxylate] | 980 |
| COc1cnc2c(-c3cc4ccccc4o3)cc(C)cc2c1 [Example 177, 8-(benzofuran-2-yl)-3-methoxy-6-methylquinoline] | 190 |
| Cc1cc(-c2nc3c(s2)CCCC3)c2ncc(OC(F)F)nc2c1 [Example 178, 2-(2-(difluoromethoxy)-7-methylquinoxalin-5-yl)-4,5,6,7-tetrahydrobenzo[d]thiazole] | 13 |
| COc1cnc2c(-c3nc4c(C)cc(OC)nc4s3)cc(C)cc2n1 [Example 179, 5-methoxy-2-(2-methoxy-7-methylquinoxalin-5-yl)-7-methylthiazolo[5,4-b]pyridine] | 18 |
| COCc1cnc2c(-c3nc4cc(F)c(OC)nc4s3)cc(C)cc2n1 [Example 180, 6-fluoro-5-methoxy-2-(2-(methoxymethyl)-7-methylquinoxalin-5-yl)thiazolo[5,4-b] pyridine] | 2.7 |
| COCc1cnc2c(-c3nc4c(C)cc(OC)nc4s3)cc(C)cc2n1 [Example 181, 5-methoxy-2-(2-(methoxymethyl)-7-methylquinoxalin-5-yl)-7-methylthiazolo[5,4-b] pyridine] | 1.2 |
